Assay results taken from patent US9926330B2, “Inhibitors of IRAK4 activity” (MERCK SHARP & DOHME CORP., priority 2014, dated 2018).
pIC50: −log10 of the molar value.

target: GST tagged IRAK4 (Homo sapiens (Human), UniProt Q9NWZ3); experiment: IRAK4 Kinase Assay (IMAP fluorescence polarization); type: biochemical; details: 0.5 nM GST tagged IRAK4, 100 nM fluorescent peptide substrate RP7030, 100 μM ATP, 30 minutes at 25° C., IMAP FP readout
Procedure: The kinase activity of IRAK4 is determined by its ability to catalyze the phosphorylation of a fluorescent polypeptide substrate. The extent of phosphorylation is measured using the IMAP technology (Molecular Devices) where the phosphorylated fluorescent substrate binds to the large M(III)-based nanoparticles which reduces the rotational speed of the substrate and thus increases its fluorescent polarization (FP).
20 μL reaction mixture contains 10 mM TriHCl, pH 7.2, 0.5 nM GST tagged IRAK4 (SignalChem), 100 nM fluorescent peptide substrate (RP7030, Molecular Devices), 100 μM ATP, 1 mM DDT, 1 mM MgCl2, and 0.01% Tween 20. The reaction is initiated by the addition of ATP. After incubation for 30 minutes at 25° C., 60 μL of Progressive IMAP Reagent (Molecular Devices) is added to stop the reaction. Change in RP7030's FP is determined by a FP reader (Analyst HT, LJL BioSystems).

Chain of GST tagged IRAK4 (Q9NWZ3 whole entry): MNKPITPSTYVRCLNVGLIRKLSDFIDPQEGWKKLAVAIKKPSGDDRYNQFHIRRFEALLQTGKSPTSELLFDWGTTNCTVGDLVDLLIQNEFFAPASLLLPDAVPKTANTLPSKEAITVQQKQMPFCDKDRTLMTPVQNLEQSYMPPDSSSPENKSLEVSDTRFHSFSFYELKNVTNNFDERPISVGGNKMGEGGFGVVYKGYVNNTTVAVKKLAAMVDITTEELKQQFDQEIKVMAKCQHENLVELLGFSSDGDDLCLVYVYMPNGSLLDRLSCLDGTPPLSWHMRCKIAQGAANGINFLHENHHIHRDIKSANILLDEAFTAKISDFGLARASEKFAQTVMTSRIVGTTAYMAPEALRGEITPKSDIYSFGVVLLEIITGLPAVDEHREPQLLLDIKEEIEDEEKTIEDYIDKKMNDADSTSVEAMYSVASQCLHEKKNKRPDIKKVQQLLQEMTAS

Row | pIC50 | SMILES
1 | 7.17 | OCCCCc1ccc2ncnc(N[C@H]3CC[C@H](N4CCOCC4)CC3)c2c1 [Example 5-3, 4-{4-[(trans-4-morpholin-4-ylcyclohexyl)amino]quinazolin-6-yl}butan-1-ol]
2 | 7.54 | CC(O)c1ccc2ncnc(N[C@H]3CC[C@H](N(C)C)CC3)c2c1 (stereo partly drawn) [Example 5-4, 1-(4-{[trans-4-(dimethylamino)cyclohexyl]amino}quinazolin-6-yl)ethanol]
3 | 7.00 | Cc1ccc2ncnc(N[C@H]3CC[C@H](N4CC5(COC5)C4)CC3)c2c1 [Example 6-2, N-((trans)-4-(2-oxa-6-azaspiro[3.3]heptan-6-yl)cyclohexyl)-6-methylquinazolin-4-amine]
4 | 7.47 | CCCCc1ccc2ncnc(N[C@H]3CC[C@H](N4CCOCC4)CC3)c2c1 [Example 4-3, 6-butyl-N-(trans-4-morpholin-4-ylcyclohexyl)quinazolin-4-amine]
5 | 7.77 | CN(C)[C@H]1CC[C@H](Nc2ncnc3ccc(CCO)cc23)CC1 [Example 5-1, 2-(4-(((trans)-4-(dimethylamino)cyclohexyl)amino)quinazolin-6-yl)ethan-1-ol]
6 | 8.00 | OCCCc1ccc2ncnc(N[C@H]3CC[C@H](N4CCOCC4)CC3)c2c1 [Example 5-2, 3-{4-[(trans-4-morpholin-4-ylcyclohexyl)amino]quinazolin-6-yl}propan-1-ol]
7 | 7.54 | CN(C)[C@H]1CC[C@H](Nc2ncnc3ccc(CO)cc23)CC1 [Example 8-1, (4-(((trans)-4-(dimethylamino)cyclohexyl)amino)quinazolin-6-yl)methanol]
8 | 7.21 | CC(O)CCc1ccc2ncnc(N[C@H]3CC[C@H](N4CCOCC4)CC3)c2c1 (stereo partly drawn) [Example 7-1, 4-(4-(((trans)-4-Morpholinocyclohexyl)amino)quinazolin-6-yl)butan-2-ol]

The next lines start with the molecule.

Row | SMILES | pIC50
9 | N#CCCCc1ccc2ncnc(N[C@H]3CC[C@H](N4CCOCC4)CC3)c2c1 [Example 3-5, 4-(4-(((trans)-4-morpholinocyclohexyl)amino)quinazolin-6-yl)butanenitrile] | 6.85
10 | Cc1ccc2ncnc(N[C@H]3CC[C@@H](N4CC(S(C)(=O)=O)C4)CC3)c2c1 [Example 2-10, 6-methyl-N-{cis-4-[3-(methylsulfonyl)azetidin-1-yl]cyclohexyl}quinazolin-4-amine] | 6.42
11 | Cc1ccc2ncnc(NC3CCC(N4CCCCC4C(F)(F)F)CC3)c2c1 (stereo not shown) [Example 2-14, 6-methyl-N-{4-[2-(trifluoromethyl)piperidin-1-yl]cyclohexyl}quinazolin-4-amine] | 5.49
12 | COC/C=C/c1ccc2ncnc(N[C@H]3CC[C@H](N(C)C)CC3)c2c1 [Example 3-3, trans-N′-{6-[(1E)-3-methoxyprop-1-en-1-yl]quinazolin-4-yl}-N,N-dimethylcyclohexane-1,4-diamine] | 7.27
13 | CN(C)[C@H]1CC[C@H](Nc2ncnc3ccc(/C=C/C4CC4)cc23)CC1 [Example 3-1, (trans)-N1-(6-((E)-2-cyclopropylvinyl)quinazolin-4-yl)-N4,N4-dimethylcyclohexane-1,4-diamine] | 6.84
14 | Cc1ccc2ncnc(NC3CCC(N4CCC(C(F)(F)F)CC4)CC3)c2c1 (stereo not shown) [Example 2-11, 6-methyl-N-{4-[4-(trifluoromethyl)piperidin-1-yl]cyclohexyl}quinazolin-4-amine] | 7.06
15 | Cc1ccc2ncnc(N[C@H]3CC[C@H](N4CCC5(COC5)C4)CC3)c2c1 [Example 2-9, 6-methyl-N-[trans-4-(2-oxa-6-azaspiro[3.4]oct-6-yl)cyclohexyl]quinazolin-4-amine] | 7.02
16 | Cc1ccc2ncnc(N[C@H]3CC[C@H](N[C@@H](C)C(C)(C)O)CC3)c2c1 [Example 2-23, (3S)-2-methyl-3-({trans-4-[(6-methylquinazolin-4-yl)amino]cyclohexyl}amino)butan-2-ol] | 6.91
17 | Cc1ccc2ncnc(N[C@H]3CC[C@H](N4CCOCC4)CC3)c2c1 [Example 1-3, 6-methyl-N-(trans-4-morpholin-4-ylcyclohexyl)quinazolin-4-amine] | 7.92
18 | Cc1ccc2ncnc(NC3CCC(N4CCCC(C(F)(F)F)C4)CC3)c2c1 (stereo not shown) [Example 2-16, 6-methyl-N-{4-[3-(trifluoromethyl)piperidin-1-yl]cyclohexyl}quinazolin-4-amine] | 6.57
19 | Cc1ccc2ncnc(N[C@H]3CC[C@@H](N4CC(F)C4)CC3)c2c1 [Example 2-2, N-[cis-4-(3-fluoroazetidin-1-yl)cyclohexyl]-6-methylquinazolin-4-amine] | 5.86
20 | C=Cc1ccc2ncnc(NC3CCC(N(C)C)CC3)c2c1 (stereo not shown) [Example 3-2, N′-(6-ethenylquinazolin-4-yl)-N,N-dimethylcyclohexane-1,4-diamine] | 8.15
21 | Cc1ccc2ncnc(N[C@H]3CC[C@H](NC4CCOCC4)CC3)c2c1 [Example 2-17, (trans)-N1-(6-methylquinazolin-4-yl)-N4-(tetrahydro-2H-pyran-4-yl)cyclohexane-1,4-diamine] | 7.11
22 | Cc1ccc2ncnc(N[C@H]3CC[C@H](NCC(C)(C)C)CC3)c2c1 [Example 2-29, trans-N-(2,2-dimethylpropyl)-N′-(6-methylquinazolin-4-yl)cyclohexane-1,4-diamine] | 7.16
23 | Cc1ccc2ncnc(N[C@H]3CC[C@@H](N4CC(O)C4)CC3)c2c1 [Example 2-7, 1-{cis-4-[(6-methylquinazolin-4-yl)amino]cyclohexyl}azetidin-3-ol] | 7.43
24 | CN(C)[C@H]1CC[C@H](Nc2ncnc3ccc(C(F)(F)F)cc23)CC1 [Example 1-6, trans-N,N-dimethyl-N′-[6-(trifluoromethyl)quinazolin-4-yl]cyclohexane-1,4-diamine] | 8.05
25 | Cc1ccc2ncnc(N[C@H]3CC[C@H](N4CC(O)C4)CC3)c2c1 [Example 2-6, 1-{trans-4-[(6-methylquinazolin-4-yl)amino]cyclohexyl}azetidin-3-ol] | 5.63
26 | Cc1ccc2ncnc(N[C@H]3CC[C@H](N[C@@H](C)CS(C)(=O)=O)CC3)c2c1 [Example 2-31, trans-N-[(1S)-1-methyl-2-(methylsulfonyl)ethyl]-N′-(6-methylquinazolin-4-yl)cyclohexane-1,4-diamine] | 7.25
27 | Cc1ccc2ncnc(N[C@H]3CC[C@@H](N4CCNC(=O)C4)CC3)c2c1 [Example 2-4, 4-{cis-4-[(6-methylquinazolin-4-yl)amino]cyclohexyl}piperazin-2-one] | 5.66
28 | Cc1ccc2ncnc(N[C@H]3CC[C@H](NCc4cccs4)CC3)c2c1 [Example 2-20, trans-N-(6-methylquinazolin-4-yl)-N′-(thiophen-2-ylmethyl)cyclohexane-1,4-diamine] | 7.35
29 | Cc1ccc2ncnc(NC3CCC(N4CCCCC4C(F)(F)F)CC3)c2c1 (stereo not shown) [Example 2-15, 6-methyl-N-{4-[2-(trifluoromethyl)piperidin-1-yl]cyclohexyl}quinazolin-4-amine] | 5.75
30 | Cc1ccc2ncnc(N[C@H]3CC[C@H](NCC4CC4)CC3)c2c1 [Example 2-25, trans-N-(cyclopropylmethyl)-N′-(6-methylquinazolin-4-yl)cyclohexane-1,4-diamine] | 7.51
31 | Cc1ccc2ncnc(N[C@H]3CC[C@H](N(C)C)CC3)c2c1 [Example 1-2, trans-N,N-dimethyl-N′-(6-methylquinazolin-4-yl)cyclohexane-1,4-diamine] | 7.72
